IC50 data for 30 compounds are collected here from patent publication US10092584B2 (Achillion Pharmaceuticals, Inc., priority 2015, dated 2018).

Molecules are shown by their SMILES. Bounds are passed on as bounds.

The target in the first assay is T1, Human Factor D (Homo sapiens, UniProt P00746).
T1 construct: purified from human serum; purchased Complement Technology, Inc; host or cells: human serum
T1 sequence (P00746 26-253): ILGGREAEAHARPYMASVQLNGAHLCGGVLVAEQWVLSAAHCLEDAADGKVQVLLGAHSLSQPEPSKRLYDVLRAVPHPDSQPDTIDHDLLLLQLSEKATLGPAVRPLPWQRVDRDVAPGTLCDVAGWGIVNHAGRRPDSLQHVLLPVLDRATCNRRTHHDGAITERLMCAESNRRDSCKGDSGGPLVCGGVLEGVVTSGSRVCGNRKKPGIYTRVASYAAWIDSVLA
Briefly: Human Factor D assay (Example 8). The class given is biochemical.
Details: not given
Here is the method: Human Factor D (purified from human serum, Complement Technology, Inc.) at 80 nM final concentration was incubated with test compound at various concentrations for 5 minutes at room temperature in 50 mM Tris, 1M NaCl, pH 7.5. A synthetic substrate Z-L-Lys-SBzl and DTNB (Ellman's reagent) are added to final concentrations of 100 μM each. […] IC50 values are calculated by nonlinear regression of complement Factor D reaction rates as a function of test compound concentration.
In the case of `CC(=O)c1cn(CC(=O)N2[C@H](C(=O)NCc3cccc(Cl)c3F)C[C@@H]3CCCC[C@@H]32)c2ccccc12` [Compound 1, (2S,3aS,7aS)-1-(2-(3-acetyl-1H-indol-1-yl)acetyl)-N-(3-chloro-2-fluorobenzyl)octa-hydro-1H-indole-2-carboxamide], the 50% inhibitory concentration (IC50) was less than 1 µM.

For `CC(=O)c1cn(CC(=O)N2C[C@H](F)[C@@H](OCC3CC3)[C@H]2C(=O)NCc2cccc(Cl)c2F)c2cc(O)ccc12` [Compound 21, (2S,3S,4S)-1-(2-(3-acetyl-6-hydroxy-1H-indol-1-yl)acetyl)-N-(3-chloro-2-fluorobenzyl)-3-(cyclopropylmethoxy)-4-fluoropyrrolidine-2-carboxamide], the IC50 was less than 1 µM.

The compound `O=C(c1cn(CC(=O)N2[C@@H]3C[C@@H]3C[C@H]2C(=O)NCc2cccc(Cl)c2F)c2ccccc12)C1CC1` [Compound 22, (1R,3S,5R)-N-(3-chloro-2-fluorobenzyl)-2-(2-(3-(cyclopropanecarbonyl)-1H-indol-1-yl)acetyl)-2-azabicyclo[3.1.0] hexane-3-carboxamide] came in with an IC50 of less than 1 µM.

Compound `CC(=O)c1cn(CC(=O)N2CC(F)C(OCC3CC3)[C@H]2C(=O)NCc2cccc(Cl)c2F)c2cc(O)ccc12` (stereo partly drawn) [Compound 25, (2S)-1-(2-(3-acetyl-6-hydroxy-1H-indol-1-yl)acetyl)-N-(3-chloro-2-fluorobenzyl)-3-(cyclopropylmethoxy)-4-fluoropyrrolidine-2-carboxamide] had an IC50 of less than 1 µM. `COc1ccc2c(O[C@@H]3C[C@@H](C(=O)NCc4cccc(Cl)c4F)N(C(=O)Cn4cc(C(C)=O)c5ccccc54)C3)cc(-c3ccccc3)nc2c1` [Compound 29, (2S,4R)-1-(2-(3-acetyl-1H-indol-1-yl)acetyl)-N-(3-chloro-2-fluorobenzyl)-4-(7-methoxy-2-phenylquinolin-4-yloxy)pyrrolidine-2-carboxamide] came in with an IC50 of more than 10 µM.

As for `CC(=O)c1cn(CC(=O)N2[C@H](C(=O)NCc3cccc(Cl)c3F)C[C@@H]3CCCC[C@@H]32)c2cc(O)ccc12` [Compound 35, (2S,3aS,7aS)-1-(2-(3-acetyl-6-hydroxy-1H-indol-1-yl)acetyl)-N-(3-chloro-2-fluorobenzyl)octa-hydro-1H-indole-2-carboxamide], the IC50 is less than 1 µM.

Still in this assay, the particulars now being: Table 1; Human Factor D 80 nM, substrate Z-L-Lys-SBzl; read-out: IC50.
Consider `CC(=O)n1cc(NC(=O)[C@@H]2C[C@@H](F)CN2C(=O)NCc2cccc(Cl)c2F)c2ccccc21` [Compound 3, (2S,4R)-N2-(1-acetyl-1H-indol-3-yl)-N1-(3-chloro-2-fluorobenzyl)-4-fluoropyrrolidine-1,2-dicarboxamide], for which the IC50 is more than 10 µM.

With `CC(=O)n1cc(NC(=O)[C@@H]2C[C@H](F)CN2C(=O)NCc2cccc(Cl)c2F)c2ccccc21` [Compound 4, (2S,4S)-N2-(1-acetyl-1H-indol-3-yl)-N1-(3-chloro-2-fluorobenzyl)-4-fluoropyrrolidine-1,2-dicarboxamide], the half-inhibitory concentration (IC50) was more than 10 µM. On the same count and under the same terms, the figure for `CC(=O)n1cc(NC(=O)[C@@H]2C[C@H](F)CN2C(=O)NCc2ccccc2)c2ccccc21` [Compound 5, (2S,4S)-N2-(1-acetyl-1H-indol-3-yl)-N1-benzyl-4-fluoropyrrolidine-1,2-dicarboxamide] is more than 10 µM; for `NC(=O)n1cc(NC(=O)N2C[C@H](F)C[C@H]2C(=O)NS(=O)(=O)c2cccc(Cl)c2F)c2ccccc21` [Compound 6, (2S,4R)-N1-(1-carbamoyl-1H-indol-3-yl)-N2-(3-chloro-2-fluorophenylsulfonyl)-4-fluoropyrrolidine-1,2-dicarboxamide] it is more than 10 µM. Same read-out and setting: the figure for `CC(=O)n1cc(NC(=O)N2C[C@H](F)C[C@H]2C(=O)NS(=O)(=O)c2cccc(Cl)c2F)c2ccccc21` [Compound 7, (2S,4R)-N1-(1-acetyl-1H-indol-3-yl)-N2-(3-chloro-2-fluorophenylsulfonyl)-4-fluoropyrrolidine-1,2-dicarboxamide] is more than 10 µM; for `CC(=O)n1cc(NC(=O)[C@H]2CC(F)(F)CN2C(=O)NCc2cccc(Cl)c2F)c2ccccc21` [Compound 8, (R)-N2-(1-acetyl-1H-indol-3-yl)-N1-(3-chloro-2-fluorobenzyl)-4,4-difluoropyrrolidine-1,2-dicarboxamide] it is more than 10 µM. Regarding `CC(=O)n1cc(NC(=O)[C@H]2CCCN2C(=O)NCc2cccc(Cl)c2F)c2ccccc21` [Compound 9, (R)-N2-(1-acetyl-1H-indol-3-yl)-N1-(3-chloro-2-fluorobenzyl)pyrroli-dine-1,2-dicarboxamide], the IC50 was more than 10 µM. For the compound `CC(=O)c1cn(CC(=O)N2C[C@H](F)C[C@H]2c2ncc(-c3cccc(Cl)c3)[nH]2)c2ccccc12` [Compound 11, 2-(3-acetyl-1H-indol-1-yl)-1-((2S,4R)-2-(5-(3-chlorophenyl)-1H-imidazol-2-yl)-4-fluoropyrrolidin-1-yl)ethanone], the IC50 was more than 10 µM. The same measure, in the same setting: the figure for `CC(=O)c1cn(CC(=O)N2C[C@H](F)C[C@H]2c2nc3cc(Cl)ccc3[nH]2)c2ccccc12` [Compound 15] is more than 10 µM. With `CC(=O)n1cc(NC(=O)[C@H]2CCCN2C(=O)Nc2cccc(OC(F)(F)F)c2F)c2ccccc21` [Compound 16, (R)-N2-(1-acetyl-1H-indol-3-yl)-N1-(2-fluoro-3-(trifluoromethoxy)phenyl)pyrrolidine-1,2-dicarboxamide], the IC50 was more than 10 µM. For the compound `CC(=O)n1cc(NC(=O)[C@H]2CC(F)(F)CN2C(=O)Cc2cccc(Cl)c2F)c2ccccc21` [Compound 17, (R)-N-(1-acetyl-1H-indol-3-yl)-1-(2-(3-chloro-2-fluorophenyl)acetyl)-4,4-difluoropyrrolidine-2-carboxamide], the IC50 is more than 10 µM. As for `CC(=O)c1cn(CC(=O)N2CC[C@@H](OCC3CC3)[C@H]2C(=O)NCc2cccc(Cl)c2F)c2ccccc12` [Compound 18, (2S,3R)-1-(2-(3-acetyl-1H-indol-1-yl)acetyl)-N-(3-chloro-2-fluorobenzyl)-3-(cyclopropylmethoxy) pyrrolidine-2-carboxamide], the IC50 was less than 1 µM. Take `COc1ccc2c(O[C@@H]3C[C@@H](C(=O)NCc4cccc(Cl)c4F)N(C(=O)Nc4cn(C(C)=O)c5ccccc45)C3)cc(-c3ccccc3)nc2c1` [Compound 19, (2S,4R)-N1-(1-acetyl-1H-indol-3-yl)-N2-(3-chloro-2-fluorobenzyl)-4-(7-methoxy-2-phenylquinolin-4-yloxy)pyrrolidine-1,2-dicarboxamide]: the IC50 was more than 10 µM. For the compound `CC(=O)n1cc(NC(=O)Nc2cn(C(C)=O)c3ccccc23)c2ccccc21` [Compound 20, 1,3-bis(1-acetyl-1H-indol-3-yl)urea], the IC50 was more than 10 µM. As for `O=C(c1cn(CC(=O)N2C[C@H](F)C[C@H]2C(=O)NCc2cccc(Cl)c2F)c2ccccc12)C1CC1` [Compound 24, (2S,4R)-N-(3-chloro-2-fluorobenzyl)-1-(2-(3-(cyclopropanecarbonyl)-1H-indol-1-yl)acetyl)-4-fluoropyrrolidine-2-carboxamide], the half-inhibitory concentration (IC50) was less than 1 µM. In the case of `NC(=O)N1CC(NC(=O)[C@@H]2CCC[C@H]2C(=O)NCc2cccc(Cl)c2F)c2ccccc21` (stereo partly drawn) [Compound 26, (1R,2R)-N1-(1-carbamoylindolin-3-yl)-N2-(3-chloro-2-fluorobenzyl)cyclo-pentane-1,2-dicarboxamide], the IC50 is more than 10 µM.

In the case of `CC(=O)c1cn(CC(=O)N2C[C@H](F)C[C@H]2Cn2cc(-c3ccc(F)cc3)nn2)c2ccccc12` [Compound 27, 2-(3-acetyl-1H-indol-1-yl)-1-((2S,4R)-4-fluoro-2-((4-(4-fluorophenyl)-1H-1,2,3-triazol-1-yl)methyl)pyrrolidin-1-yl)ethanone], the concentration for half-maximal inhibition (IC50) was more than 10 µM.

As for `NC(=O)n1cc(NC(=O)N2C[C@H](F)C[C@H]2Cn2cc(-c3ccc(F)cc3)nn2)c2ccccc21` [Compound 28, 3-((2S,4R)-4-fluoro-2-((4-(4-fluorophenyl)-1H-1,2,3-triazol-1-yl)methyl)pyrrolidine-1-carboxamido)-1H-indole-1-carboxamide], the IC50 is more than 10 µM.

Regarding `NC(=O)N1C[C@H](F)C[C@H]1Cn1cc(-c2ccc(F)c(Cl)c2)nn1` [Compound 30, (2S,4R)-2-((4-(3-chloro-4-fluorophenyl)-1H-1,2,3-triazol-1-yl)methyl)-4-fluoropyrrolidine-1-carboxamide], the IC50 was more than 10 µM. On the same count and under the same terms, the figure for `NC(=O)n1cc(NC(=O)C2=C(C(=O)NCc3cccc(Cl)c3F)CCC2)c2ccccc21` [Compound 31, N1-(1-carbamoyl-1H-indol-3-yl)-N2-(3-chloro-2-fluorobenzyl)cyclo-pent-1-ene-1,2-dicarboxamide] is more than 10 µM; for `CC(=O)c1cn(CC(=O)N2C[C@H](F)C[C@H]2C(=O)N2Cc3ccccc3C2)c2ccccc12` [Compound 33, 2-(3-acetyl-1H-indol-1-yl)-1-((2S,4R)-4-fluoro-2-(isoindoline-2-carbonyl)pyrrolidin-1-yl)ethanone] it is more than 10 µM. In the case of `CC(=O)c1cn(CC(=O)N2C[C@H](F)C[C@H]2C(=O)N(C)Cc2cccc(Cl)c2F)c2ccccc12` [Compound 34, (2S,4R)-1-(2-(3-acetyl-1H-indol-1-yl)acetyl)-N-(3-chloro-2-fluorobenzyl)-4-fluoro-N-methylpyrrolidine-2-carboxamide], the IC50 was more than 10 µM. Same read-out and setting: the figure for `N#Cc1cn(CC(=O)N2C[C@H](F)C[C@H]2C(=O)NCc2cccc(Cl)c2F)c2ccccc12` [Compound 36, (2S,4R)-N-(3-chloro-2-fluorobenzyl)-1-(2-(3-cyano-1H-indol-1-yl)acetyl)-4-fluoropyrrolidine-2-carboxamide] is less than 1 µM; for `O=C1CCCc2c1c1ccccc1n2CC(=O)N1C[C@H](F)C[C@H]1C(=O)NCc1cccc(Cl)c1F` [Compound 37, (2S,4R)-N-(3-chloro-2-fluorobenzyl)-4-fluoro-1-(2-(4-oxo-3,4-dihydro-1H-carbazol-9(2H)-yl)acetyl)pyrrolidine-2-carboxamide] it is less than 1 µM.

A word on the IC50: it is the concentration needed to halve the response being measured.
